# US8927500B2, “Peptidomimetic macrocycles” (Aileron Therapeutics, Inc., priority 2012, dated 2015)
# Where a SMILES comes first, the peptide text is derived from it. Bridges are numbered along the chain shown (N, C = ends). [ ]: non-standard residue; d: D form. R8 = C=CCCCCCC[C@@](C)(N)C(=O)O; S5 = C=CCCC[C@](C)(N)C(=O)O
# How the values were obtained:
# [1] = test system: Caspase 3; assay: Caspase 3 detection assay in SJSA1 cells; assay type: cell-based; details: 48 h, Caspase 3 activation over DMSO-treated cells; for caspase 0.3 uM: 0.3 uM peptide; for caspase 3 uM: 3 uM peptide; for caspase 10 uM: 10 uM peptide; for caspase 30 uM: 30 uM peptide
# [2] = test system: SJSA-1 cells; assay: Cell lysis by peptidomimetic macrocycles (LDH release); assay type: cell-based; details: 1 h at 37C
# [3] = molecular target: T1, MDMX (Homo sapiens, UniProt O15151); assay: Competitive fluorescence polarization assay for MDMX; assay type: binding; details: competitive FP assay; for IC50: read-out: IC50 (MDMX); for Ki: read-out: Ki (MDMX)
# T1 sequence (O15151 1-125): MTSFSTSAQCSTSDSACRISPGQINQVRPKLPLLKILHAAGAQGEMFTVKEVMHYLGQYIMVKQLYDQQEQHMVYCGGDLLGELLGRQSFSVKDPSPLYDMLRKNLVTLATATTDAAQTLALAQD
# Protocol: Dilute MDMX (In-house, 40 kD) into FP buffer (High salt buffer-200 mM Nacl, 5 mM CHAPS, pH 7.5.) to make 300 nM (2×) working stock solution. • 2. […] Dilute 1 mM (in 100% DMSO) of FAM labeled linear peptide with DMSO to 100 μM (dilution 1:10). Then, dilute from 100 μM to 10 μM with water (dilution 1:10) and then dilute with FP buffer from 10 μM to 40 nM (dilution 1:250). This is the working solution which will be a 10 nM concentration in well (dilution 1:4). Keep the diluted FAM labeled peptide in the dark until use. • 4. […] Dilute 10 mM (in 100% DMSO) with DMSO to 5 mM (dilution 1:2). Then, dilute from 5 mM to 500 μM with H2O (dilution 1:10) and then dilute with FP buffer from 500 μM to 20 μM (dilution 1:25). […] Transfer 10 μl of serial diluted unlabeled peptides to each well which is filled with 20 μl of 300 nM of protein. • 7. Add 10 μl of 10 nM (4×) of FAM labeled peptide into each well and incubate for 3 hr to read.
# [4] = molecular target: MDM2 (Homo sapiens, UniProt Q00987); assay: Competitive fluorescence polarization assay for MDM2; assay type: binding; details: competitive FP assay, MDM2; for IC50: read-out: IC50 (MDM2); for Ki: read-out: Ki (MDM2)
# MDM2, sequence (Q00987 1-125): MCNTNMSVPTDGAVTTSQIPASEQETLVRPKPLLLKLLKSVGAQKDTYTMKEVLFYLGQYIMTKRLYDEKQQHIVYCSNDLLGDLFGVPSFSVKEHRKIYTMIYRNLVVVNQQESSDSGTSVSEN
# Protocol: Dilute 1 mM (in 100% DMSO) of FAM labeled linear peptide with DMSO to 100 μM (dilution 1:10). Then, dilute from 100 μM to 10 μM with water (dilution 1:10) and then dilute with FP buffer from 10 μM to 40 nM (dilution 1:250). This is the working solution which will be a 10 nM concentration in well (dilution 1:4). […] Then, dilute from 5 mM to 500 μM with H2O (dilution 1:10) and then dilute with FP buffer from 500 μM to 20 μM (dilution 1:25).
# Dilute 1 mM (in 100% DMSO) of FAM labeled linear peptide with DMSO to 100 μM (dilution 1:10). Then, dilute from 100 μM to 10 μM with water (dilution 1:10) and then dilute with FP buffer from 10 μM to 40 nM (dilution 1:250). This is the working solution which will be a 10 nM concentration in well (dilution 1:4). […] Dilute 10 mM (in 100% DMSO) with DMSO to 5 mM (dilution 1:2). Then, dilute from 5 mM to 500 μM with H2O (dilution 1:10) and then dilute with FP buffer from 500 μM to 20 μM (dilution 1:25). […] Transfer 10 μl of serial diluted unlabeled peptides to each well which is filled with 20 μl of 300 nM of protein. • 7. Add 10 μl of 10 nM (4×) of FAM labeled peptide into each well and incubate for 3 hr to read.
smiles,measurement,setting,value
CC(=O)N[C@@H](CCC(=O)O)C(=O)N[C@H](C(=O)N[C@@H](Cc1ccccc1)C(=O)N[C@]1(C)CCCCCCC=CCCC[C@@](C)(C(=O)N[C@@H](CO)C(=O)N[C@H](C(=O)N[C@@H](CO)C(N)=O)C(C)C)NC(=O)[C@H](CC(C)C)NC(=O)[C@H](CCC(N)=O)NC(=O)[C@H](C)NC(=O)[C@H](Cc2c[nH]c3ccccc23)NC(=O)[C@H](Cc2ccc(O)cc2)NC(=O)[C@H](C(C)C)NC1=O)[C@@H](C)O [compound 130] (Ac-ETF[R8]VYWAQL[S5]SVS-NH2; staple 4-11),caspase 0.3 uM,[1],1
same,caspase 3 uM,[1],2
same,caspase 10 uM,[1],6
same,caspase 30 uM,[1],17
same,6.25 uM % Lysed cells (1 h LDH),[2],1%
same,25 uM % Lysed cells (1 h LDH),[2],0%
same,50 uM % Lysed cells (1 h LDH),[2],−1%
same,IC50,[3],0.1 to 1 µM
same,Ki,[3],0.01 to 0.1 µM
same,IC50,[4],< 0.01 µM
same,Ki,[4],< 0.01 µM
CC(=O)N[C@@H](CCC(=O)O)C(=O)N[C@H](C(=O)N[C@@H](Cc1ccccc1)C(=O)N[C@]1(C)CCCCCCC=CCCC[C@@](C)(C(=O)N[C@@H](CO)C(=O)N[C@@H](C)C(=O)N[C@@H](C)C(N)=O)NC(=O)[C@H](CC(C)C)NC(=O)[C@H](CCC(N)=O)NC(=O)[C@H](C)NC(=O)[C@H](Cc2c[nH]c3ccccc23)NC(=O)[C@H](Cc2ccc(O)cc2)NC(=O)[C@H](CCC(=O)O)NC1=O)[C@@H](C)O [compound 161] (Ac-ETF[R8]EYWAQL[S5]SAA-NH2; staple 4-11),caspase 0.3 uM,[1],2
same,caspase 3 uM,[1],8
same,caspase 10 uM,[1],14
same,caspase 30 uM,[1],22
same,6.25 uM % Lysed cells (1 h LDH),[2],1%
same,25 uM % Lysed cells (1 h LDH),[2],−1%
same,50 uM % Lysed cells (1 h LDH),[2],0%
same,IC50,[3],0.1 to 1 µM
same,Ki,[3],0.01 to 0.1 µM
same,IC50,[4],< 0.01 µM
same,Ki,[4],< 0.01 µM
CC[C@H](C)[C@H](NC(=O)[C@H](C)NC(=O)[C@H](C)NC(=O)[C@]1(C)CCCC=CCCCCCC[C@@](C)(NC(=O)[C@H](Cc2ccccc2)NC(=O)[C@@H](NC(=O)[C@H](CC(C)C)NC(C)=O)[C@@H](C)O)C(=O)N[C@@H](C)C(=O)N[C@@H](Cc2c[nH]cn2)C(=O)N[C@@H](Cc2c[nH]c3ccccc23)C(=O)N[C@@H](C)C(=O)N[C@@H](CCC(N)=O)C(=O)N[C@@H](CC(C)C)C(=O)N1)C(=O)N[C@H](C)C(N)=O [compound 170] (Ac-LTF[R8]AHWAQL[S5]AAI[dA]-NH2; staple 4-11),caspase 0.3 uM,[1],1
same,caspase 3 uM,[1],1
same,caspase 10 uM,[1],16
same,caspase 30 uM,[1],20
same,6.25 uM % Lysed cells (1 h LDH),[2],2%
same,25 uM % Lysed cells (1 h LDH),[2],1%
same,50 uM % Lysed cells (1 h LDH),[2],−1%
same,IC50,[3],0.1 to 1 µM
same,Ki,[3],0.01 to 0.1 µM
same,IC50,[4],< 0.01 µM
same,Ki,[4],< 0.01 µM
CC[C@H](C)[C@H](NC(C)=O)C(=O)N[C@H](C(=O)N[C@@H](Cc1ccccc1)C(=O)N[C@]1(C)CCCCCCC=CCCC[C@@](C)(C(=O)N[C@@H](C)C(=O)N[C@@H](C)C(=O)N[C@H](C(=O)N[C@H](C)C(N)=O)[C@@H](C)CC)NC(=O)[C@H](CC(C)C)NC(=O)[C@H](CCC(N)=O)NC(=O)[C@H](C(C)C)NC(=O)[C@H](Cc2c[nH]c3ccccc23)NC(=O)[C@H](Cc2ccc(O)cc2)NC(=O)[C@H](Cc2ccccc2)NC1=O)[C@@H](C)O [compound 177] (Ac-ITF[R8]FYWVQL[S5]AAI[dA]-NH2; staple 4-11),caspase 0.3 uM,[1],1
same,caspase 3 uM,[1],1
same,caspase 10 uM,[1],8
same,caspase 30 uM,[1],20
same,6.25 uM % Lysed cells (1 h LDH),[2],−1%
same,25 uM % Lysed cells (1 h LDH),[2],0%
same,50 uM % Lysed cells (1 h LDH),[2],1%
same,IC50,[3],0.1 to 1 µM
same,Ki,[3],0.01 to 0.1 µM
same,IC50,[4],0.01 to 0.1 µM
same,Ki,[4],< 0.01 µM
CC(=O)N[C@@H](CC(C)C)C(=O)N[C@H](C(=O)N[C@@H](Cc1ccccc1)C(=O)N[C@]1(C)CCCCCCC=CCCC[C@@](C)(C(=O)N[C@@H](CO)C(=O)N[C@@H](C)C(=O)N[C@@H](C)C(N)=O)NC(=O)[C@H](CC(C)C)NC(=O)[C@H](C)NC(=O)[C@H](C(C)C)NC(=O)[C@H](Cc2c[nH]c3ccccc23)NC(=O)[C@H](Cc2ccc(O)cc2)NC(=O)[C@H](C)NC1=O)[C@@H](C)O [compound 196] (Ac-LTF[R8]AYWVAL[S5]SAA-NH2; staple 4-11),caspase 0.3 uM,[1],1
same,caspase 3 uM,[1],4
same,caspase 10 uM,[1],33
same,caspase 30 uM,[1],26
same,6.25 uM % Lysed cells (1 h LDH),[2],0%
same,25 uM % Lysed cells (1 h LDH),[2],0%
same,50 uM % Lysed cells (1 h LDH),[2],3%
same,IC50,[3],0.1 to 1 µM
same,Ki,[3],0.01 to 0.1 µM
same,IC50,[4],0.01 to 0.1 µM
same,Ki,[4],< 0.01 µM
